In brackets after ≈: the same amount, converted by molar mass. Blank lines part the entries; values can stand above or below the molecule they belong to.
How the values were obtained:
Alcaligenes faecalis A 1 = test: MIC, agar dilution assay; assay type: cell-based; conditions: Alcaligenes faecalis, A1, 20 h, 35°C for 20 hours, read-out: Antibiotic Activity minimum inhibitory concentration
Protocol: (§1) The antibiotic activities shown in Tables 1-1 to 1-9 above were determined in the following manner. The minimum inhibitory concentrations of the compounds of formula (VI-b) in Tables I-1 to 1-8 and the known compounds in Table 1-9 on the various microorganisms shown in the above tables were measured by an agar dilution assay method using a brain heart infusion agar medium "Difco" (a product of Difco Laboratories Inc.). A sample of the test compound was dissolved in sterile distilled water and diluted to prepare a twofold dilution series of the compound solution. In a betri dish of 9 cm in diameter, 1 ml of the compound solution was added to 9 ml of a molten sterile heart infusion agar medium (Difco Laboratories Inc.) at. about 60°C to prepare an agar plate containing the compound. An overnight culture of each test organism indicated in the above table, which was prepared by stationary cultivation in trypto-soy broth (Eiken Chemi. Co., Ltd.) at 35°C for 18 to 20 hours, was diluted with the trypto-soy broth to give approximately 10^8 cells/ml and the diluted inoculum was inoculated in the agar plate. After cultivating the plate at 35°C for 20 hours, the growth of the organism was observed. The minimum concentration of the compound at which no growth of the microorganism was noted was determined, and defined as the minimum inhibitory concentration of the test compound.

[1] = tested on: Bacillus subtilis ATCC 6633; test: MIC, agar dilution assay; assay type: cell-based; conditions: Bacillus subtilis, ATCC6633, 20 h, 35°C for 20 hours, read-out: Antibiotic Activity minimum inhibitory concentration
Protocol: as §1

[2] = tested on: Citrobacter freundii GN 346; test: MIC, agar dilution assay; assay type: cell-based; conditions: GN346, 20 h, 35°C for 20 hours, read-out: Antibiotic Activity minimum inhibitory concentration
Protocol: as §1

[3] = tested on: Comamonas terrigena B-996; test: MIC, agar dilution assay; assay type: cell-based; conditions: Comamonas terrigena, B996, 20 h, 35°C for 20 hours, read-out: Antibiotic Activity minimum inhibitory concentration
Protocol: as §1

[4] = tested on: Enterobacter aerogenes E19; test: MIC, agar dilution assay; assay type: cell-based; conditions: Klebsiella aerogenes, E19, 20 h, 35°C for 20 hours, read-out: Antibiotic Activity minimum inhibitory concentration
Protocol: as §1

Enterobacter cloacae 45 = test: MIC, agar dilution assay; assay type: cell-based; conditions: Enterobacter cloacae, 45, 20 h, 35°C for 20 hours, read-out: Antibiotic Activity minimum inhibitory concentration
Protocol: as §1

Enterobacter sp. E8 = test: MIC, agar dilution assay; assay type: cell-based; conditions: Enterobacter, SP.E8, 20 h, 35°C for 20 hours, read-out: Antibiotic Activity minimum inhibitory concentration
Protocol: as §1

Escherichia coli K-12 = test: MIC, agar dilution assay; assay type: cell-based; conditions: Escherichia coli, K12, 20 h, 35°C for 20 hours, read-out: Antibiotic Activity minimum inhibitory concentration
Protocol: as §1

Escherichia coli RGN 823 = test: MIC, agar dilution assay; assay type: cell-based; conditions: RGN823, 20 h, 35°C for 20 hours, read-out: Antibiotic Activity minimum inhibitory concentration
Protocol: as §1

[5] = tested on: Klebsiella pneumoniae K-13; test: MIC, agar dilution assay; assay type: cell-based; conditions: K13, 35°C for 20 hours, read-out: Antibiotic Activity minimum inhibitory concentration
Protocol: as §1

Proteus mirabilis P6 = test: MIC, agar dilution assay; assay type: cell-based; conditions: P6, 20 h, 35°C for 20 hours, read-out: Antibiotic Activity minimum inhibitory concentration
Protocol: as §1

Sarcina lutea = test: MIC, agar dilution assay; assay type: cell-based; conditions: Micrococcus luteus, 20 h, 35°C for 20 hours, read-out: Antibiotic Activity minimum inhibitory concentration
Protocol: as §1

[6] = tested on: Staphylococcus aureus FDA 209P; test: MIC, agar dilution assay; assay type: cell-based; conditions: Staphylococcus aureus, FDA209P, 20 h, 35°C for 20 hours, read-out: Antibiotic Activity minimum inhibitory concentration
Protocol: as §1

[7] = tested on: Staphylococcus aureus Russell; test: MIC, agar dilution assay; assay type: cell-based; conditions: Staphylococcus aureus, 20 h, 35°C for 20 hours, read-out: Antibiotic Activity minimum inhibitory concentration
Protocol: as §1

[8] = tested on: Staphylococcus aureus Smith; test: MIC, agar dilution assay; assay type: cell-based; conditions: Staphylococcus aureus, 20 h, 35°C for 20 hours, read-out: Antibiotic Activity minimum inhibitory concentration
Protocol: as §1

[9] = tested on: Staphylococcus epidermidis; test: MIC, agar dilution assay; assay type: cell-based; conditions: 20 h, 35°C for 20 hours, read-out: Antibiotic Activity minimum inhibitory concentration
Protocol: as §1

[10] = Test for concentration in blood (plasma of mouse, bioassay); assay type: in vivo; conditions: sc, subcutaneous, 2 mg/mouse, average on five mice; for Cmax: bioassay with Comamonas terrigena B-996, read-out: Maximum concentration; for half-life: read-out: Half period (period that elapsed until the concentration was reduced to half)
Protocol: Typical species of the compounds of formula (VI-b) were each administered subcutaneously to five mice in a dose of 2 mg. After 5 minutes from the administration, a small amount of blood was periodically drawn from the eyes of the mice into a heparinized capillary tube, and centrifuged. The concentration of the compound in the supernatant liquid (plasma) was determined by a bioassay method using Comamonas terri^gena B-996.

[11] = tested on: Staphylococcus aureus Smith strain; test: Infection treating test (CD50); assay type: in vivo; conditions: in Mus musculus, sc, 2 h, mice infected intraperitoneally with 5 x 10^5 cells per mouse, subcutaneous injection two hours after the infection
Protocol: The in vivo activities of the compounds of formula (VI-b) were determined by using mice (five per group, male DDY mice, Shizuoka) which had been intraperitoneally infected with Staphylococcus aureus Smith strain in an amount of 5 x 10^5 cells per mouse. Two hours after the infection, an injection containing a sodium salt of each of the compounds of formula (VI-b) was subcutaneously administered to the mice.

S. aureus = test: Disc diffusion assay in nutrient broth containing 10% horse serum; assay type: cell-based
Excerpt: The compounds of formula (I) provided by this invention show excellent antimicrobial activities in in vitro tests in horse serum as shown in Table IV below.

Compound: CCC1C(=O)N2C(C(=O)O)=C(Sc3ccccn3)CC12 (stereo not drawn) [Table I-2 R1=H]
MIC (Alcaligenes faecalis A 1): 0.1 µg/mL (≈ 0.344 µM)
MIC [1]: 0.012 µg/mL (≈ 0.0413 µM)
MIC [2]: 25 µg/mL (≈ 86.1 µM)
MIC [3]: 0.003 µg/mL (≈ 0.0103 µM)
MIC [4]: 25 µg/mL (≈ 86.1 µM)
MIC (Enterobacter cloacae 45): 50 µg/mL (≈ 172 µM)
MIC (Enterobacter sp. E8): 12.5 µg/mL (≈ 43.1 µM)
MIC (Escherichia coli K-12): 6.25 µg/mL (≈ 21.5 µM)
MIC (Escherichia coli RGN 823): 6.25 µg/mL (≈ 21.5 µM)
MIC [5]: 25 µg/mL (≈ 86.1 µM)
MIC (Proteus mirabilis P6): 3.13 µg/mL (≈ 10.8 µM)
MIC (Sarcina lutea): 0.0008 µg/mL (≈ 0.00276 µM)
MIC [6]: 0.006 µg/mL (≈ 0.0207 µM)
MIC [7]: 0.012 µg/mL (≈ 0.0413 µM)
MIC [8]: 0.012 µg/mL (≈ 0.0413 µM)
MIC [9]: 0.012 µg/mL (≈ 0.0413 µM)

Compound: CCC1C(=O)N2C(C(=O)O)=C(Sc3ccncc3)CC12 (stereo not drawn) [Table II r5 R1=H R2=[drawing] M=H]
Cmax [10]: 70700 ng/mL
half-life [10]: 16 min
ED50 [11]: 0.063 mg/kg

Compound: CCC1C(=O)N2C(C(=O)O)=C(Sc3ccccn3)CC12 (stereo not drawn) [Table II r9 R1=H R2=[drawing] M=H]
Cmax [10]: 48400 ng/mL
half-life [10]: 29 min
ED50 [11]: 0.125 mg/kg

MIC (Alcaligenes faecalis A 1): 0.2 µg/mL (≈ 0.657 µM)
MIC [1]: 0.05 µg/mL (≈ 0.164 µM)
MIC [2]: 50 µg/mL (≈ 164 µM)
MIC [3]: 0.007 µg/mL (≈ 0.023 µM)
MIC [4]: 50 µg/mL (≈ 164 µM)
MIC (Enterobacter cloacae 45): > 100 µg/mL
MIC (Enterobacter sp. E8): 25 µg/mL (≈ 82.1 µM)
MIC (Escherichia coli K-12): 12.5 µg/mL (≈ 41.1 µM)
MIC (Escherichia coli RGN 823): 12.5 µg/mL (≈ 41.1 µM)
MIC [5]: 50 µg/mL (≈ 164 µM)
MIC (Proteus mirabilis P6): 6.25 µg/mL (≈ 20.5 µM)
MIC (Sarcina lutea): 0.004 µg/mL (≈ 0.0131 µM)
MIC [6]: 0.007 µg/mL (≈ 0.023 µM)
MIC [7]: 0.013 µg/mL (≈ 0.0427 µM)
MIC [8]: 0.013 µg/mL (≈ 0.0427 µM)
MIC [9]: 0.05 µg/mL (≈ 0.164 µM)
Compound: CC(C)C1C(=O)N2C(C(=O)O)=C(Sc3ccccn3)CC12 (stereo not drawn) [Table I-2 R1=-CH3]

Compound: CC(C)C1C(=O)N2C(C(=O)O)=C(Sc3ncccn3)CC12 (stereo not drawn) [Table II r11 R1=-CH3 R2=[drawing] M=H]
Cmax [10]: 21200 ng/mL
half-life [10]: 18.2 min
ED50 [11]: 1 mg/kg

Compound: CCC1C(=O)N2C(C(=O)OCc3ccccc3)=C(I)CC12 (stereo not drawn) [Table IV r10 R=H X=I M=[drawing]]
Inhibitory zone diameter (S. aureus): 30.0 mm

Cmax [10]: 11300 ng/mL
half-life [10]: 25.2 min
Compound: CCC1C(=O)N2C(C(=O)O)=C(Sc3ccccc3)CC12 (stereo not drawn) [Table II r15 R1=H R2=[drawing] M=Na]

Compound: COC(=O)C1=C(I)CC2C(C(C)O)C(=O)N12 (stereo not drawn) [Table IV r11 R=OH X=I M=CH3]
Inhibitory zone diameter (S. aureus): 31.0 mm

Compound: CC(O)[C@@H]1C(=O)N2C(C(=O)O)=C(Sc3ccncc3)C[C@H]12 (relative stereo) [Table II r8 R1=-OH R2=[drawing] M=H**]
Cmax [10]: 29000 ng/mL
half-life [10]: 13.5 min
ED50 [11]: 0.125 mg/kg

Compound: CC(=O)NCCSC1=C(C(=O)O)N2C(=O)C(C(C)C)C2C1 (stereo not drawn) [PS-6.Na, 3-(2-acetamidoethylthio)-6-isopropyl-7-oxo-1-azabicyclo[3.2.0]hept-2-ene-2-carboxylic acid, reference compound]
Cmax [10]: 23800 ng/mL
half-life [10]: 5 min
ED50 [11]: 8 mg/kg

Compound: CCC1C(=O)N2C(C(=O)O)=C(SCCN(C)C)CC12 (stereo not drawn) [R1=H R2=-CH2CH2N(CH3)2 M=H]
Cmax [10]: 36200 ng/mL
half-life [10]: 6 min
ED50 [11]: 0.25 mg/kg

Compound: CCC1C(=O)N2C(C(=O)OC)=C(Br)CC12 (stereo not drawn) [Table IV r4 R=H X=Br M=CH3, methyl 3-bromo-6-ethyl-7-oxo-l-azabicyclo[3.2.0]hept-2-ene-2-carboxylate]
Inhibitory zone diameter (S. aureus): 29.7 mm

Compound: CCC1C(=O)N2C(C(=O)O)=C(SCCO)CC12 (stereo not drawn) [R1=H R2=-CH2CH2OH M=Na]
Cmax [10]: 36900 ng/mL
half-life [10]: 6 min
ED50 [11]: 1 mg/kg

Compound: CCC1C(=O)N2C(C(=O)OC)=C(I)CC12 (stereo not drawn) [Table IV r9 R=H X=I M=CH3, methyl 3-iodo-6-ethyl-7-oxo-l-azabicyclo[3.2.0]hept-2-ene-2-carboxylate]
Inhibitory zone diameter (S. aureus): 29.6 mm

Compound: CC(O)C1C(=O)N2C(C(=O)OCc3ccc([N+](=O)[O-])cc3)=C(Br)CC12 (stereo not drawn) [Table IV r8 R=OH X=Br M=[drawing]]
Inhibitory zone diameter (S. aureus): 31.2 mm
